Data set [1] has as its system intracellular ribonuclease in HEK 293 cells. The data set can be described thus: Evaluation of harmfulness to cells using fluorescently labeled double-stranded RNA (intracellular RNA degradation, FRET fluorescence). Particulars: Mercury II Chrolide 100 ng/ml. An excerpt: That is, the present inventors designed and prepared a double-stranded RNA comprising an RNA strand labeled with a fluorescent dye A that emits fluorescence, and an RNA strand labeled with a fluorescent dye B that quenches emission from a fluorescent dye in the vicinity thereof. When the double-stranded RNA is in a double-stranded state, the fluorescence is in a quenched state due to occurrence of fluorescence resonance energy transfer (FRET) (Non-patent Document 4) between the two kinds of fluorescent dyes.
[…] After mixing, each reaction liquid was incubated at room temperature for 20 minutes, and then added to HEK 293 cells (2×10^5 cells/ml in 96 well plate), which are human cells. From Hour 0 to Hour 8, fluorescence was measured at 519 nm with excitation at 488 nm using a Microplate Reader SH-9000 (Corona Electric) at one-hour intervals. The experiment was carried out for n=3.
The result obtained by dividing the fluorescence values at Hours 1 to 8 by the fluorescence value at Hour 0 is shown in FIG. 5.
As reaction liquids, systems each containing 50 μL of Opti-MEM (Life Technologies), 1 μL of Lipofectamine 2000 (Life Technologies), 200 nM double-stranded RNA (the same RNA as in Example 1), and 0 ng/ml, 1 ng/ml, 100 ng/ml, or 100 μg/ml Cisplatin (Wako) were provided. […]

Data set [2] concerns the target T1, Ribonuclease (DNase free) Solution (ribonuclease; RNase) (Bos taurus, UniProt P61823).
T1 sequence (P61823 27-150): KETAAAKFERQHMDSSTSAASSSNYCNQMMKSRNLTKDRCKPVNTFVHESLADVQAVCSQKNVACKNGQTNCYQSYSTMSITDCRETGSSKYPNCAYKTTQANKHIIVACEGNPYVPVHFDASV
Particulars: 100 μM hydrogen peroxide. The method, then:
In this experiment, how hydrogen peroxide influences the fluorescently labeled double-stranded RNA and a Ribonuclease (DNase free) Solution (ribonuclease; RNase) (Nippon Gene) was investigated.
A reaction liquid containing 200 nM double-stranded RNA in Opti-MEM (Life Technologies) (50 μL) was provided, and fluorescence was measured at 519 nm with excitation at 488 nm using a Microplate Reader SH-9000 (Corona Electric) (the result at Hour 0). Thereafter, systems in each of which hydrogen peroxide was added at 0 or 100 μM, and Ribonuclease (DNase free) Solution (ribonuclease; RNase) (Nippon Gene) was added at 0 or 0.4 mg/ml, were provided, and each system was incubated at room temperature for 1, 2, or 4 hours, followed by measurement of fluorescence at 519 nm with excitation at 488 nm using a Microplate Reader SH-9000 (the result at Hour 1, 2, or 4). The experiment was carried out for n=3.
The result obtained by dividing the fluorescence value at Hour 1, 2, or 4 by the fluorescence value at Hour 0 is shown in FIG. 4.

A further data set concerns HEK 293 cells. Particulars: hydrogen peroxide 0.01, 1 or 100 μM, measured at Hour 2, 4, 6, 8, n=3.
Data set [3] concerns the target T1, Ribonuclease (DNase free) Solution (ribonuclease; RNase). The experiment in a line: Degradation of the fluorescently labeled double-stranded RNA (FRET probe) by ribonuclease, cell-free. It counts as biochemical. More on the design: purchased Nippon Gene. Particulars: 200 nM double-stranded RNA in Opti-MEM, 0.4 mg/ml RNase, room temperature 1 hour, vs no RNase, n=3. An excerpt:
First, FRET-Alexa-RNA: 5′-(Alexa Flour 488)-[…]-3′ (SEQ ID NO: 1) as a reporter strand, and FRET-BHQ1-RNA: (5′-[…]-(BHQ1)-3′ (SEQ ID NO:2) as a quencher strand were provided. The base at the 5′ end of the reporter strand is labeled with Alexa Flour 488 through a C6 linker, and the base at the 3′ end of the quencher strand is labeled with BHQ1 (Black Hole Quencher 1) without use of a linker (FIG. 2).
The reporter strand and the quencher strand were mixed at a ratio of 1:2 (molar ratio) in a solution of 50 mM HEPES, 500 mM KCl, and 25 mM MgCl2, and the resulting solution was incubated at 99° C. for 5 minutes, at 65° C. for 30 minutes, and then at 25° C. for 30 minutes to prepare a double-stranded RNA.
The experiment was carried out for n=3.

With `[Cl][Hg][Cl]` [Mercury II Chrolide], the “concentration dependence of the suppression of the fluorescence increase” value in data set [1] (10 μg/ml or 1 mg/ml) is given as “dependent on the Mercury II Chrolide concentration”. For the same compound, the “increase in the fluorescence value with time (Hours 1 to 8 divided by Hour 0)” value in data set [1] (10 μg/ml or 1 mg/ml vs 0 ng/ml, Hour 0 to 8, n=3) is recorded as “suppressed”.
With `OO` [hydrogen peroxide], in data set [2] (200 nM double-stranded RNA, 0.4 mg/ml RNase, room temperature, n=3), the “fluorescence value (Hour 1, 2 or 4 divided by Hour 0) of system with RNase, compared with RNase system” value is given as “almost the same”. In data set [2] (200 nM double-stranded RNA, no RNase, room temperature, n=3), the “fluorescence value (Hour 1, 2 or 4 divided by Hour 0) of system without RNase, vs system with neither RNase nor hydrogen peroxide” value is recorded as “almost the same”. In data set [2] (cell-free, 1-4 hours), the “influence on fluorescence value of the RNA FRET Probe and on RNase activity (cell-free)” value was “influences neither the fluorescence value of the RNA FRET Probe nor the RNase activity”. In the data set on HEK 293 cells, the “time at which a decrease in the absorbance (relative to 0 μM taken as 1) was first found” value turned out to be 8 h.
“fluorescently labeled double-stranded RNA: Double-stranded RNA of FRET-Alexa-RNA reporter strand (SEQ ID NO: 1, Alexa Flour 488) and FRET-BHQ1-RNA quencher strand (SEQ ID NO: 2) (sense CAUAAUCCACCUCCCACUAUUCC; antisense GGAAUAGUGGGAGGUGGAUUAUG; RNA, backbone not given here; Alexa Fluor 488 on reporter, BHQ1 on quencher)”: the “fluorescence intensity (fluorescence value at Hour 1 divided by value at Hour 0) on addition of RNase” value in data set [3] is reported as “obviously increased”.

These data come from US20180217128A1, “METHOD FOR MEASURING IN VIVO INHIBITION OF INTRACELLULAR RNASE” (NATIONAL INSTITUTE OF ADVANCED INDUSTRIAL SCIENCE AND …, priority 2015, published 2018).
